Results published in patent publication US8247211B2, “Glycopeptide antibiotics” (American Cyanamid Company, priority 2001, dated 2012).
≈ marks a conversion by molar mass, not a printed value.

What was measured:
Enterococcus sp. = assay: In vitro antibacterial evaluation: minimum inhibitory concentration (MIC), broth dilution method; assay type: cell-based
Summary of the method: (§1)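 Broth dilution per NCCLS M7-A2 in Muller-Hinton II […], inoculum 5×10^5 CFU/mL, antibiotic tested over 64-0.06 μg/mL. MIC is taken as the lowest concentration that inhibits growth. Panel includes recent clinical isolates resistant to methicillin, penicillin and/or vancomycin.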

Escherichia coli = assay: as above; assay type: cell-based; conditions: for MIC Escherichia coli (GC 4560): strain GC 4560
Summary of the method: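 Using Muller-Hinton II […] and an inoculum of 5×10^5 CFU/mL, antibiotic dilutions from 64 down to 0.06 μg/mL were tested following NCCLS M7-A2. The MIC is the lowest concentration inhibiting growth, including in methicillin-, penicillin- or vancomycin-resistant clinical isolates.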

Streptococcus sp. = assay: as above; assay type: cell-based
Summary of the method: as §1

[1] = tested on: Staphylococcus aureus-SMITH (GC 4543); assay: Acute lethal infection in mice (ED50); assay type: in vivo; conditions: female CD-1 mice, intraperitoneal challenge, intravenous dose 30 min. after infection, 7 day survival ratios
Procedure: The therapeutic effects of glycopeptide antibiotics of Formula I are determined against acute lethal infections with S. aureus (strain Smith), a penicillin resistant strain of S. pneumoniae (strain GC 1894), and a vancomycin resistant strain of E. fecalis (strain GC 6189 and GC 2246). Female mice, CD-1 (Charles River Laboratories), 20 +1-2 gm, are challenged by intraperitoneal injection of sufficient bacteria (suspended in Trypticase Soy Broth or hog gastric mucin) to kill non-treated controls within 24-48 hr. Antibacterial agents, contained in 0.2 mL of saline or 5% dextrose solution, are administered intravenously 30 min. after infection. Five mice are treated at each dose level. The 7 day survival ratios from 3 separate tests are pooled for calculation of median effective dose (ED50).

Staphylococcus sp. = assay: In vitro antibacterial evaluation: minimum inhibitory concentration (MIC), broth dilution method; assay type: cell-based; conditions: for MIC Coagulase Negative Staphylococcus (GC 4537): strain GC 4537; for MIC Coagulase Negative Staphylococcus (GC 4538): strain GC 4538; for MIC Coagulase Negative Staphylococcus (GC 4547): strain GC 4547
Summary of the method: as §1

[2] = Streptococcus pneumoniae (GC 1894), broth dilution, 18 hours at 35° C.
[3] = broth dilution, 18 hours at 35° C.

SMILES	MIC Enterococcus faecium (GC 4557) (Enterococcus sp.; strain GC 4557) [µg/mL]	MIC Escherichia coli (GC 4560) (Escherichia coli) [µg/mL]	MIC Streptococcus pneumoniae (GC 1894) (Streptococcus sp.; [2]) [µg/mL]	MIC Streptococcus pneumoniae (GC 1894) (Streptococcus sp.; strain GC 1894) [µg/mL]	median effective dose (ED50), Staphylococcus aureus-SMITH (GC 4543) [1]	MIC Enterococcus faecalis (ATCC 29212) (Enterococcus sp.; strain ATCC 29212) [µg/mL]	MIC Enterococcus faecalis (GC 2242) (Enterococcus sp.; strain GC 2242) [µg/mL]	MIC Enterococcus faecalis (GC 4552) (Enterococcus sp.; strain GC 4552) [µg/mL]	MIC Escherichia coli (GC 4559) (Escherichia coli; strain GC 4559) [µg/mL]	MIC Staphylococcus aureus (ATCC 29213) (Staphylococcus sp.; [3]) [µg/mL]	MIC Staphylococcus aureus (GC 1131) (Staphylococcus sp.; [3]) [µg/mL]	MIC Staphylococcus aureus (GC 4535) (Staphylococcus sp.; [3]) [µg/mL]	MIC Staphylococcus aureus SMITH (GC 4536) (Staphylococcus sp.; [3]) [µg/mL]	MIC Coagulase Negative Staphylococcus (GC 4537) (Staphylococcus sp.) [µg/mL]	MIC Coagulase Negative Staphylococcus (GC 4537) (Staphylococcus sp.; [3]) [µg/mL]	MIC Coagulase Negative Staphylococcus (GC 4538) (Staphylococcus sp.) [µg/mL]	MIC Coagulase Negative Staphylococcus (GC 4538) (Staphylococcus sp.; [3]) [µg/mL]	MIC Coagulase Negative Staphylococcus (GC 4547) (Staphylococcus sp.) [µg/mL]	MIC Coagulase Negative Staphylococcus (GC 4547) (Staphylococcus sp.; [3]) [µg/mL]	MIC Staphylococcus aureus-SMITH (GC 4536) (Staphylococcus sp.; strain SMITH GC 4536, broth dilution, 18 hours at 35° C.) [µg/mL]
CC(c1ccccc1)C1NC(=O)CNC(=O)C(CO)NC(=O)C(C(O)C2CN(Cc3ccccc3)C(=NCc3ccccc3)N2C2OC(CO)C(O)C(O)C2O)NC(=O)C(C(O)C2CN(Cc3ccccc3)C(=NCc3ccccc3)N2Cc2ccccc2)NC(=O)C(Cc2ccc(OC3OC(CO)C(OC4OC(CO)C(O)C(O)C4O)C(O)C3O)cc2)NC1=O (stereo not drawn) [Example 62, Cyclo[glycyl-β-methylphenylalanyl-O-(4-O-hexopyranosylhexopyranosyl)tyrosyl-3-[1,3-dibenzyl-2-(benzylimino)imidazolidin-4-yl]seryl-3-[1-benzyl-2-(benzylimino)-3-hexopyranosylimidazolidin-4-yl]serylseryl]]	64 (≈ 36.7 µM)	4 (≈ 2.29 µM)	64 (≈ 36.7 µM)	64 (≈ 36.7 µM)	>8															
CC(c1ccccc1)C1NC(=O)CNC(=O)C(CO)NC(=O)C(CC2CN(Cc3ccccc3)C(=NCc3ccccc3)N2C2OC(CO)C(O)C(O)C2O)NC(=O)C(CC2CN(Cc3ccccc3)C(=NCc3ccccc3)N2Cc2ccccc2)NC(=O)C(Cc2ccc(OC3OC(CO)C(OC4OC(CO)C(O)C(O)C4O)C(O)C3O)cc2)NC1=O (stereo not drawn) [Example 73, Cyclo[3-[1,3-benzyl-2-(benzylimino)imidazolidin-4-yl]alanyl-3-[1-benzyl-2-(benzylimino)-3-hexopyranosylimidazolidin-4-yl]alanylserylglycyl-β-methylphenylalanyl-O-(4-O-hexopyranosylhexopyranosyl)tyrosyl]]		16 (≈ 9.34 µM)	64 (≈ 37.3 µM)	64 (≈ 37.3 µM)	>8															
CCCCCCC(=O)OCC1OC(OC2C(CO)OC(Oc3ccc(CC4NC(=O)C(C(C)c5ccccc5)NC(=O)CNC(=O)C(CO)NC(=O)C(C(O)C5CNC(=N)N5C5OC(CO)C(O)C(O)C5O)NC(=O)C(C(O)C5CNC(=N)N5)NC4=O)cc3)C(O)C2O)C(O)C(O)C1O (stereo not drawn) [Example 97b, Cyclo[glycyl-β-methylphenylalanyl-O-[4-O-(6-O-heptanoylhexopyranosyl)hexopyranosyl]-tyrosyl-3-(2-iminoimidazolidin-4-yl)seryl-3-(3-hexopyranosyl-2-iminoimidazolidin-4-yl)-serylseryl]]		1 (≈ 0.711 µM)			8 mg/kg	4 (≈ 2.84 µM)	2 (≈ 1.42 µM)	4 (≈ 2.84 µM)	32 (≈ 22.7 µM)	1 (≈ 0.711 µM)	1 (≈ 0.711 µM)	1 (≈ 0.711 µM)	0.5 (≈ 0.355 µM)	1 (≈ 0.711 µM)	1 (≈ 0.711 µM)	1 (≈ 0.711 µM)	1 (≈ 0.711 µM)	1 (≈ 0.711 µM)	1 (≈ 0.711 µM)	0.5 (≈ 0.355 µM)
